Measured values taken from article PMC3692398 (Biochemical pharmacology, 2013).
Like-named read-outs stand apart in the source and are kept apart here.

Legend:
hSERT [1] = molecular target: T1, hSERT (Homo sapiens, UniProt P31645); assay: Superfusion release of preloaded [3H]5-HT from HEK-hSERT cells; format: cell-based
h5-HT2A receptor [2] = molecular target: T2, h5-HT2A receptor (Homo sapiens, UniProt P28223); conditions: data not shown
hDAT [3] = molecular target: T3, hDAT (Homo sapiens, UniProt Q01959); assay: Inhibition of [3H]DA uptake, intact HEK-hDAT cells; format: cell-based
T3 sequence (Q01959 whole entry): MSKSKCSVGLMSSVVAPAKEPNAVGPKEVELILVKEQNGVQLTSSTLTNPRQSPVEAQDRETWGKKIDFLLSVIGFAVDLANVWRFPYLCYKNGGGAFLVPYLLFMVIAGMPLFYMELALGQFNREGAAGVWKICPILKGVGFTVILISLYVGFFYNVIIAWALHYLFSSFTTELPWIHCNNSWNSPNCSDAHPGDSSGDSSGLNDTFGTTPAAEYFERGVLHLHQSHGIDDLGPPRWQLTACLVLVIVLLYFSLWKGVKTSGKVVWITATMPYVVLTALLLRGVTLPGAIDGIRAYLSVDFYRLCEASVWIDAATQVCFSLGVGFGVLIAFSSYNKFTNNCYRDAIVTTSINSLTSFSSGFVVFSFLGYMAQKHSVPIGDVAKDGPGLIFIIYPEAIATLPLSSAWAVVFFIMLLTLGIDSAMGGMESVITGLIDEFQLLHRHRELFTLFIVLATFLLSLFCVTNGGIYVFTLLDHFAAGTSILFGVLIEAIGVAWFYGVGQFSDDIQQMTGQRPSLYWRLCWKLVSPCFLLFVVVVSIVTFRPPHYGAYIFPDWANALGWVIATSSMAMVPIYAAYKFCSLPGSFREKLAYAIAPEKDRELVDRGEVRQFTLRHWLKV

h5-HT2A receptor [4] = molecular target: T2, h5-HT2A receptor; assay: Inhibition of 5-HT-stimulated IP-1 formation; format: cell-based
hSERT [5] = molecular target: T1, hSERT; assay: Inhibition of [125I]RTI-55 binding, HEK-hSERT membranes
human DA D3 receptor = human DA D3 receptor (Homo sapiens, UniProt P35462); assay: [3H]YM-09151-2 binding, CHOp-D3 cells; conditions: test drugs up to 10 µM; words give concentration range, 'low' = low nanomolar
Sequence of human DA D3 receptor (P35462 whole entry): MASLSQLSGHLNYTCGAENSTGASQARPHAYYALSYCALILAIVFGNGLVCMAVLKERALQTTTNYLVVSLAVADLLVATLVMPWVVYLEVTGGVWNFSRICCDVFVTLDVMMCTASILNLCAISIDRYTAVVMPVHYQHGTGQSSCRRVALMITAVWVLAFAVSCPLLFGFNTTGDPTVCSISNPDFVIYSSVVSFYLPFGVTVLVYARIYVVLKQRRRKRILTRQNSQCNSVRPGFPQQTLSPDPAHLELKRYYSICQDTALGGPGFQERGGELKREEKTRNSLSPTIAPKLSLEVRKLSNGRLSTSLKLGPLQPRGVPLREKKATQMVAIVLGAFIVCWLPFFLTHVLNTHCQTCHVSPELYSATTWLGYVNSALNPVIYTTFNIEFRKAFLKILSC

h5-HT1A receptor [6] = molecular target: T4, h5-HT1A receptor (Homo sapiens, UniProt P08908); assay: Stimulation of [35S]GTPγS binding, HEK-h5-HT1A membranes; format: biochemical
T4 sequence (P08908 1-422): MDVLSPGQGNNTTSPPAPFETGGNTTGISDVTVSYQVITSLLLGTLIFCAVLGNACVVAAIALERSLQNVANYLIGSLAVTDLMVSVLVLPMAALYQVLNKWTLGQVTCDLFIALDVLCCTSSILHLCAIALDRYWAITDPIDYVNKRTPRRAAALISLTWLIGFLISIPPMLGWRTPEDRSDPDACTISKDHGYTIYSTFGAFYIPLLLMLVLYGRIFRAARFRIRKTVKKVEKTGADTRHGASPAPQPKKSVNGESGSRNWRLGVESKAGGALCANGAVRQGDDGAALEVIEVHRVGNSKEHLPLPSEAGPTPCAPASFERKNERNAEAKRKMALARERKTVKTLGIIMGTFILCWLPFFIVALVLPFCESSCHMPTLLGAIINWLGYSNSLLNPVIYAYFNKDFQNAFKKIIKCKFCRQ

hNET [7] = molecular target: T5, hNET (Homo sapiens, UniProt P23975); assay: biochemical; format: binding
T5 sequence (P23975 whole entry): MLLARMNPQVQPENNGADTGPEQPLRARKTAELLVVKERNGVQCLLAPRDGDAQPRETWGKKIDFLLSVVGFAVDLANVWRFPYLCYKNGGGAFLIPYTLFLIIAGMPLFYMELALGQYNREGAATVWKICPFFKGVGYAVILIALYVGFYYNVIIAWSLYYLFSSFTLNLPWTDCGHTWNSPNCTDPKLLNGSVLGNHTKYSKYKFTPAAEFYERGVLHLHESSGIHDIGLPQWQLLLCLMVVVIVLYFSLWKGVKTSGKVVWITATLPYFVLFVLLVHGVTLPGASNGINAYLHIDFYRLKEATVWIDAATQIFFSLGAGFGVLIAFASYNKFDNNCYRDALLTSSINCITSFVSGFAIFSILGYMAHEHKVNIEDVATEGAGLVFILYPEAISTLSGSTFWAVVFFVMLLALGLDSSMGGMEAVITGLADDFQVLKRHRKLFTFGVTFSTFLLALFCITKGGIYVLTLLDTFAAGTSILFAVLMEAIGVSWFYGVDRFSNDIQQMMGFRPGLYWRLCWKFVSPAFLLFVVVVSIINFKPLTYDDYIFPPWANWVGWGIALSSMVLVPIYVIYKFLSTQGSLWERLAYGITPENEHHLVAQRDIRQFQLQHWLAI

hVMAT2 [8] = molecular target: T6, hVMAT2 (Homo sapiens, UniProt Q05940); assay: Inhibition of [3H]DHTB binding, HEK-hVMAT2 membranes
T6 sequence (Q05940 whole entry, the tested form may be a part): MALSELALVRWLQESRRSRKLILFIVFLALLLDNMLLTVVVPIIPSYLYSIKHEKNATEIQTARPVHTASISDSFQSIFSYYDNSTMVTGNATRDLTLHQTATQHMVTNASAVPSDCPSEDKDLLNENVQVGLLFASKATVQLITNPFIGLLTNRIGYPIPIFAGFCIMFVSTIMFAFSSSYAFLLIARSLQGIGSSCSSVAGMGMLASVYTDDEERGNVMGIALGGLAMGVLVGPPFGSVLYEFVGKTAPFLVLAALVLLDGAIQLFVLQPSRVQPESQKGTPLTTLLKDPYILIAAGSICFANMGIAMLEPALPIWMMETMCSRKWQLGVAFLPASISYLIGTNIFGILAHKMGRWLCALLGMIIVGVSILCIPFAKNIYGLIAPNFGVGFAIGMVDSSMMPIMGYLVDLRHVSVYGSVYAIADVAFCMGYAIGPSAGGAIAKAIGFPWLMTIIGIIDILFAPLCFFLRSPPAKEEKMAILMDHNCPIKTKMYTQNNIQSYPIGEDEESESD

hVMAT2 [9] = molecular target: T6, hVMAT2; assay: Superfusion release of preloaded [3H]NE from HEK-hVMAT2 cells; format: cell-based
h5-HT2C receptor [10] = molecular target: T7, h5-HT2C receptor (Homo sapiens, UniProt P28335); format: cell-based; conditions: data not shown
T7 sequence (P28335 33-458): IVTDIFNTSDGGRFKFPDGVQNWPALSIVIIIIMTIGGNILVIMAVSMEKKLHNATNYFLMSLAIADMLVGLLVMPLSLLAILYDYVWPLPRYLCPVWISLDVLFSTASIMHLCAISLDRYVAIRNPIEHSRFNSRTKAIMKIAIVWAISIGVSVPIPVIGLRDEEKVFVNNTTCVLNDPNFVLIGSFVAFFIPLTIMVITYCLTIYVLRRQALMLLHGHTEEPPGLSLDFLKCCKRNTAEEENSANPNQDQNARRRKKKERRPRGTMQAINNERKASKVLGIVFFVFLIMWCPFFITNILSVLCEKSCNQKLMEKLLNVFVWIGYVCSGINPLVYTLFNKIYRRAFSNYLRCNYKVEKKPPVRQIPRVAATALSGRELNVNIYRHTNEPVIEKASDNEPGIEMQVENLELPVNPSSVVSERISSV

h5-HT2C receptor [11] = molecular target: T7, h5-HT2C receptor; assay: Inhibition of 5-HT-stimulated IP-1 formation; format: cell-based
human DA D1 receptor = human DA D1 receptor (Homo sapiens, UniProt P21728); assay: [3H]SCH23390 binding, LhD1 cells; conditions: test drugs up to the maximal concentration tested (10 µM)
Sequence of human DA D1 receptor (P21728 whole entry, the tested form may be a part): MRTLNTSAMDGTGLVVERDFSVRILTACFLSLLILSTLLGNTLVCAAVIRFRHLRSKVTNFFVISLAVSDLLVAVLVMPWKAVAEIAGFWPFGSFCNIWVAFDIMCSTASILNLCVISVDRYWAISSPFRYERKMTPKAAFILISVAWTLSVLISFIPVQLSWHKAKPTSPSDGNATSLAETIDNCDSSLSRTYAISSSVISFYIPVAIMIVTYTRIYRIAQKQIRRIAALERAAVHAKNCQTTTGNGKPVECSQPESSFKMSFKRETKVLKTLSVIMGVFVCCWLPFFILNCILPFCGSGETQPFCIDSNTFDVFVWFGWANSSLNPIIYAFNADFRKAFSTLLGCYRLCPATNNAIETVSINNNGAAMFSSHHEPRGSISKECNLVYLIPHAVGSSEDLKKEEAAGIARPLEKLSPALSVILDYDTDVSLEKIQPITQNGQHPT

hNET [12] = molecular target: T5, hNET; assay: Superfusion release of preloaded [3H]NE from HEK-hNET cells; format: cell-based
hVMAT2 [13] = molecular target: T6, hVMAT2; assay: Inhibition of [3H]5-HT uptake, HEK-hVMAT2 membrane preparation; format: biochemical
hSERT [14] = molecular target: T1, hSERT; assay: Inhibition of [3H]5-HT uptake, intact HEK-hSERT cells; format: cell-based
h5-HT2C receptor [15] = molecular target: T7, h5-HT2C receptor; assay: biochemical; format: binding
h5-HT2A receptor [16] = molecular target: T2, h5-HT2A receptor; assay: [125I]DOI binding, HEK-h5-HT2A
h5-HT1A receptor [17] = molecular target: T4, h5-HT1A receptor; assay: [3H]8-OH-DPAT binding, HEK-h5-HT1A
hSigma1 receptor [18] = molecular target: T8, hSigma1 receptor (Homo sapiens, UniProt Q99720); assay: [3H]; format: binding; conditions: Inhibition of [3H]pentazocine binding Ki ± sem, hSigma1
T8 sequence (Q99720 whole entry): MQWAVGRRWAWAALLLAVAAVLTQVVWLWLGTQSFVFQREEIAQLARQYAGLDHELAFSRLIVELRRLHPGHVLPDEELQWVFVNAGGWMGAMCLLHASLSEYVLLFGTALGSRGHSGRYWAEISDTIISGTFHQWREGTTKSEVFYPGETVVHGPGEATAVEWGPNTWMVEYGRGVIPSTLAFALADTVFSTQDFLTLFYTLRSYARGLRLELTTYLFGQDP

hSigma1 receptor [19] = molecular target: T8, hSigma1 receptor; conditions: read-out: hSigma1 Ki, published value; ref Lee et al., 2008; cited from earlier work
human DA D2 receptor = human DA D2 receptor (Homo sapiens, UniProt P14416); format: binding; conditions: test drugs up to the maximal concentration tested (10 µM)
Sequence of human DA D2 receptor (P14416 whole entry): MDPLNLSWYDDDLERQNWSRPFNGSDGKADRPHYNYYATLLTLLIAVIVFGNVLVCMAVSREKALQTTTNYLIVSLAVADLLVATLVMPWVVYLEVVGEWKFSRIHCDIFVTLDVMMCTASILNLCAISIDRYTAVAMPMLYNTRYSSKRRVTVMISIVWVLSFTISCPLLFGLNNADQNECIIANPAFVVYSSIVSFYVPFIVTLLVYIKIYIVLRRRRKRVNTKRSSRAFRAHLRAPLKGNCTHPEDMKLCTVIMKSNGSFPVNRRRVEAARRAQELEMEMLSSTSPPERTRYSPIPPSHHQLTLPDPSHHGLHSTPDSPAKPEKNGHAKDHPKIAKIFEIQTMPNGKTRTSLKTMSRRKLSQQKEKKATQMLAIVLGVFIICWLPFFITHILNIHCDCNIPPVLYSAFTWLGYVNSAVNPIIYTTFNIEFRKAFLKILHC

hDAT [20] = molecular target: T3, hDAT; assay: Inhibition of [125I]RTI-55 binding, HEK-hDAT membranes
human D4.4 receptor = molecular target: T9, human D4.4 receptor (Homo sapiens, UniProt P21917); format: binding; conditions: test drugs up to 10 µM; words give concentration range, 'low' = low nanomolar
T9 sequence (P21917 1-419): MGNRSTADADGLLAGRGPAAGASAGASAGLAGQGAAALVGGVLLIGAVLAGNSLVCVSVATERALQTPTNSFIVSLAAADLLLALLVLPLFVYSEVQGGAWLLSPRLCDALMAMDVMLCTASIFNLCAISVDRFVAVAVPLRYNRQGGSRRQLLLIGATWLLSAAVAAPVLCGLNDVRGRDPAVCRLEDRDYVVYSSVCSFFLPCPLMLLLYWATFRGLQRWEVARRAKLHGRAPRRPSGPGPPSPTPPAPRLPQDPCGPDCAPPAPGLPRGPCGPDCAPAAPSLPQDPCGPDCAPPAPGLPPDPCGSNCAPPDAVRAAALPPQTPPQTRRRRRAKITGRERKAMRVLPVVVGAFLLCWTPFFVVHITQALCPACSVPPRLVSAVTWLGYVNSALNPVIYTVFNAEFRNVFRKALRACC

hNET [21] = molecular target: T5, hNET; assay: cell-based; format: cell-based
hDAT [22] = molecular target: T3, hDAT; assay: Superfusion release of preloaded [3H]DA from HEK-hDAT cells; format: cell-based
hDAT [23] = molecular target: T3, hDAT; conditions: read-out: Kd of radioligand, HEK-hDAT; ref Eshleman et al., 1999; cited from earlier work
hSERT [24] = molecular target: T1, hSERT; conditions: read-out: Kd of radioligand, HEK-hSERT; ref Eshleman et al., 1999; cited from earlier work
hNET [25] = molecular target: T5, hNET; conditions: read-out: Kd of radioligand, HEK-hNET; ref Eshleman et al., 1999; cited from earlier work

T2 sequence (P28223 whole entry): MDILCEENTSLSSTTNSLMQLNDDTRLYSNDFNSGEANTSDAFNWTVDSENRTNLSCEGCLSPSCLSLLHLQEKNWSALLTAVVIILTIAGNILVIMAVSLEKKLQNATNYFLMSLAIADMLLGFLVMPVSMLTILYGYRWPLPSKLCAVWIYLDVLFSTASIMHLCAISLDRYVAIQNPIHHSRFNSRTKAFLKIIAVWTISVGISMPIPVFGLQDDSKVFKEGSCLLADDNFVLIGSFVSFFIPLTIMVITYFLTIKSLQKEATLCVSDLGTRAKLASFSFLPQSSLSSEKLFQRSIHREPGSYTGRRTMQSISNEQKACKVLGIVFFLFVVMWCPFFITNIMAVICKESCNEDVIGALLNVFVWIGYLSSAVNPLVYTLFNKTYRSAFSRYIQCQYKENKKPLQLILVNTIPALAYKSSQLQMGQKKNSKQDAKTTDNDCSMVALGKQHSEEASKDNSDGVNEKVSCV
T1 sequence (P31645 whole entry, the tested form may be a part): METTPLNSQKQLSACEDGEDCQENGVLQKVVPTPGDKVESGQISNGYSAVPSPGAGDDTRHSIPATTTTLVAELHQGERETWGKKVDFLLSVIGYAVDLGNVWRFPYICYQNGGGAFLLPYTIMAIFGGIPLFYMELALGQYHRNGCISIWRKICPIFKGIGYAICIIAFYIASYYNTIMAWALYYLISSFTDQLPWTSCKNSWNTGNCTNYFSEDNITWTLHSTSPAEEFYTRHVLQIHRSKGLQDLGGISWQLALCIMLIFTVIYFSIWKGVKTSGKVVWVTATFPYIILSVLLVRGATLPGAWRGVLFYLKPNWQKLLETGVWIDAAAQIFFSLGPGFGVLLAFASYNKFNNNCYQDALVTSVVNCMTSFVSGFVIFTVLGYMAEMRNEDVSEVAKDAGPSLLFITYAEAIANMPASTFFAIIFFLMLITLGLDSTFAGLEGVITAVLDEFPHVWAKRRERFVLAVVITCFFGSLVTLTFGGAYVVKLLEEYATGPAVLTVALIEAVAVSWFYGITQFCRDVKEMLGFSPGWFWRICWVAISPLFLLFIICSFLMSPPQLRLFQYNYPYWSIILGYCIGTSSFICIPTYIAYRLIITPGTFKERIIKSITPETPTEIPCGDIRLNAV

CN[C@@H](C)Cc1ccccc1 [METH, (+)methamphetamine, reference compound]
% maximum release ± sem, hSERT [3H]5-HT (hSERT [1]): 97.6 ± 7.2% | EC50 (hSERT [1]): 22.4 ± 0.24 µM | fold less potent than PCA to induce [3H]5-HT release (hSERT [1]; EC50 compared to PCA): 28 fold | h5-HT2A agonist activity, inositol monophosphate (h5-HT2A receptor [2]): partial agonist activity at millimolar concentrations | IC50 (hDAT [3]): 0.026 ± 0.01 µM | ratio of binding Ki to uptake IC50, hDAT (hDAT [3]; [125I]RTI-55 Ki / [3H]DA uptake IC50): 152 | IC50 (h5-HT2A receptor [4]): 112 ± 12 µM | h5-HT2A Inhibition of 5-HT-stimulated IP-1 formation % maximum inhibition ± sem (h5-HT2A receptor [4]; 100 nM 5-HT, normalized to maximal inhibition by ketanserin (10 µM)): 100.0 ± 0.0% | Ki (hSERT [5]): 241 ± 8.9 µM | affinity for the [3H]YM-09151-2 binding site, DA D3 receptor (human DA D3 receptor): no measurable affinity | EC50 (h5-HT1A receptor [6]): 18.1 ± 4.2 µM | Emax (h5-HT1A receptor [6]; read-out: h5-HT1A Stimulation of [35S]GTPγS binding % maximum stimulation ± sem): 66% | Ki (hNET [7]): 1.39 ± 0.12 µM | Ki (hVMAT2 [8]): 920 ± 110 µM | EC50 (hVMAT2 [9]): 79 ± 29 µM | Release of [3H]NE % maximum release ± sem or range, hVMAT2 (hVMAT2 [9]): 95.5 ± 2.1% | h5-HT2C agonist activity, inositol monophosphate (h5-HT2C receptor [10]): partial agonists with midmicromolar potencies | IC50 (h5-HT2C receptor [11]): > 1000 µM | h5-HT2C Inhibition of 5-HT-stimulated IP-1 formation % maximum inhibition ± sem (h5-HT2C receptor [11]; 100 nM 5-HT, normalized to maximal inhibition by SB242084 (1 µM)): < 3% | affinity for the [3H]SCH23390 binding site, DA D1 receptor (human DA D1 receptor): no measurable affinity | EC50 (hNET [12]): 0.128 ± 0.036 µM | % maximum release ± sem, hNET [3H]NE (hNET [12]; relative to maximal AUC induced by METH (0.3 or 1 µM)): 92.7 ± 5.2% | IC50 (hVMAT2 [13]): 4.72 ± 0.61 µM | IC50 (hSERT [14]): 4.1 ± 1.3 µM | ratio of binding Ki to uptake IC50, hSERT (hSERT [14]; [125I]RTI-55 Ki / [3H]5-HT uptake IC50): 59 | Ki (h5-HT2C receptor [15]): 10.2 ± 2.9 µM | Ki (h5-HT2A receptor [16]): 43.5 ± 9.1 µM | Ki (h5-HT1A receptor [17]): 5.9 ± 0.85 µM | Ki (hSigma1 receptor [18]): 3.18 ± 0.74 µM | Ki (hSigma1 receptor [19]): 5.2 µM | affinity for the [3H]YM-09151-2 binding site, DA D2 receptor (human DA D2 receptor): no measurable affinity | Ki (hDAT [20]): 3.96 ± 0.92 µM | affinity for the [3H]YM-09151-2 binding site, DA D4.4 receptor (human D4.4 receptor): no measurable affinity | IC50 (hNET [21]): 0.026 ± 0.0077 µM | ratio of binding Ki to uptake IC50, hNET (hNET [21]): 53 | EC50 (hDAT [22]): 0.4 ± 0.12 µM | % maximum release ± sem, hDAT [3H]DA (hDAT [22]; relative to maximal AUC induced by METH (1 or 10 µM)): 101.9 ± 4.9%

COC(=O)[C@H]1[C@@H](c2ccc(I)cc2)C[C@@H]2CC[C@H]1N2C [[^125I]RTI-55]
Kd (hDAT [23]): 0.00183 ± 0.00021 µM | Kd (hSERT [24]): 0.00098 ± 0.00016 µM | Kd (hNET [25]): 0.0121 ± 0.0019 µM
